ChEMBL document CHEMBL1132009, “Inhibition of MMP-1 and MMP-13 with phosphinic acids that exploit binding in the S2 pocket” (Bioorg Med Chem Lett, 1999)

Experiments:
Collagenase 3 = Collagenase 3 (Homo sapiens, UniProt P45452); test: Inhibition of recombinant Matrix metalloprotease-13 (MMP-13)
Interstitial collagenase = target: T1, Interstitial collagenase (Homo sapiens, UniProt P03956); test: Inhibitory activity against recombinant matrix metalloprotease-1 (MMP-1).
T1 sequence (P03956 whole entry): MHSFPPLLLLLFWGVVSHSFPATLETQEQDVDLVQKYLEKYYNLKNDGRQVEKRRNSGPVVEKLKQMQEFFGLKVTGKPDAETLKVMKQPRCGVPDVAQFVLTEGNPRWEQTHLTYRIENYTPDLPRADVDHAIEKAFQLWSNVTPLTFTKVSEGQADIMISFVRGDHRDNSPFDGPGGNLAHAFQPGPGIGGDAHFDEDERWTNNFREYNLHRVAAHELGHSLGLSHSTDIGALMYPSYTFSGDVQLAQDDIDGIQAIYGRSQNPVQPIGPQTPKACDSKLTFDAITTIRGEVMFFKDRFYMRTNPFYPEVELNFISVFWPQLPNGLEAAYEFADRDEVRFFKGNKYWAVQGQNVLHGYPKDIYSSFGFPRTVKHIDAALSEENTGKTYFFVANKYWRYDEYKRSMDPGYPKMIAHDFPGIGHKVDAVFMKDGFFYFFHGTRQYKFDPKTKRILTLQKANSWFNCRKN

Stromelysin-1 = Stromelysin-1 (Homo sapiens, UniProt P08254); test: Inhibition of recombinant matrix metalloprotease-3 (MMP-3)
[1] = target: 72 kDa type IV collagenase (Homo sapiens, UniProt P08253); test: Inhibition of recombinant matrix metalloprotease-2 (MMP-2)
[2] = Steady state volume of distribution after iv administration to rats; format: ADME, organism-based; conditions: rat, in vivo
[3] = Terminal half-life after iv administration to rats; format: ADME, organism-based; conditions: rat, in vivo
[4] = Clearance after iv administration to rats; format: ADME, organism-based; conditions: rat, in vivo
[5] = Selectivity ratio for MMP-2 over MMP-3

Stromelysin-1, sequence (P08254 whole entry): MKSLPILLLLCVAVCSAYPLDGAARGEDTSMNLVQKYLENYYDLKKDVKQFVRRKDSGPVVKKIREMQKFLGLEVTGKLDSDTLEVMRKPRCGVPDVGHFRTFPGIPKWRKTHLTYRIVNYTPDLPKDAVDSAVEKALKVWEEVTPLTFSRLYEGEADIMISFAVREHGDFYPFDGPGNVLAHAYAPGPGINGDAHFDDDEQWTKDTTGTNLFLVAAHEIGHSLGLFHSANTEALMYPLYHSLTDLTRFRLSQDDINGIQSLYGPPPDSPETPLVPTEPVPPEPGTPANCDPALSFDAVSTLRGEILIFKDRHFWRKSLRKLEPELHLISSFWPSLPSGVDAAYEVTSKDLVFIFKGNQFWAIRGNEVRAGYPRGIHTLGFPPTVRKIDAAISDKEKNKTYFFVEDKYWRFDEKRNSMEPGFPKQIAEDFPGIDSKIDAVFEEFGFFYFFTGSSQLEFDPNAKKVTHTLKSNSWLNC
72 kDa type IV collagenase, sequence (P08253 whole entry): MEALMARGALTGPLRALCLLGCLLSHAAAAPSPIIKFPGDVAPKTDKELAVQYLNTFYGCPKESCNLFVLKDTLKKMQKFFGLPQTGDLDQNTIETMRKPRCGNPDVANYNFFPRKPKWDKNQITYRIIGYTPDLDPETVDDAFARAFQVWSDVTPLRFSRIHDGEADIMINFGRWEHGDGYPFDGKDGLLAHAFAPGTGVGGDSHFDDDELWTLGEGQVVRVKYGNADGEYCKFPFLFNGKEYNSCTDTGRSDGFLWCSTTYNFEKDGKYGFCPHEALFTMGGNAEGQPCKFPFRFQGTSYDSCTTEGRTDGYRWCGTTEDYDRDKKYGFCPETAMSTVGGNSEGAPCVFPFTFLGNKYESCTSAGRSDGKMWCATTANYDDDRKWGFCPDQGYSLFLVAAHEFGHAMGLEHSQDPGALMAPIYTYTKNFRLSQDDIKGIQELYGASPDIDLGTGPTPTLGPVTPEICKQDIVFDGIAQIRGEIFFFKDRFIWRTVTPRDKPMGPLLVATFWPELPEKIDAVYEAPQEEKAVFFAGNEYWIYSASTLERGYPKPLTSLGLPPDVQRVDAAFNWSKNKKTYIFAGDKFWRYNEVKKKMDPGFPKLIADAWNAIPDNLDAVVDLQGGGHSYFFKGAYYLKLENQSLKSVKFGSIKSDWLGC

| SMILES | IC50 (Collagenase 3) [nM] | IC50 (Interstitial collagenase) [nM] | further results |
| --- | --- | --- | --- |
| CNC(=O)[C@H](NC(=O)C(CC1CC1)CP(=O)(O)Cc1ccc(Cc2ccccc2)cc1)C(C)(C)C (some centres undefined) | 1100 | 200 | – |
| CNC(=O)[C@@H](Cc1ccc(OC)cc1)NC(=O)C(CC(C)C)CP(=O)(O)Cc1ccc(C(=O)NCc2ccccc2)cc1 (some centres undefined) | – | 2100 | – |
| CNC(=O)[C@H](NC(=O)C(CCC1CCCCC1)CP(=O)(O)Cc1ccc(Cc2ccccc2)cc1)C(C)(C)C (some centres undefined) | 2000 | 19000 | – |
| CNC(=O)[C@H](NC(=O)C(CCc1ccccc1)CP(=O)(O)Cc1ccccc1)C(C)(C)C (some centres undefined) | 300 | 22000 | IC50 (Stromelysin-1): 2700 nM |
| CC(C)CC(CP(=O)(O)Cc1ccc(Cc2ccccc2)cc1)C(=O)NCC(C)(C)C (centres undefined) | – | 20000 | – |
| CNC(=O)[C@H](NC(=O)C(CCC(C)C)CP(=O)(O)Cc1ccc(Cc2ccccc2)cc1)C(C)(C)C (some centres undefined) | > 3000 | 3500 | – |
| CNC(=O)[C@H](NC(=O)C(CC1CCC1)CP(=O)(O)Cc1ccc(Cc2ccccc2)cc1)C(C)(C)C (some centres undefined) | 110 | 180 | – |
| CC(C)C[C@@H](NC(=O)[C@H](CCc1ccccc1)CP(=O)(O)CCCCN1C(=O)c2ccccc2C1=O)C(=O)Nc1ccccc1 | – | – | Ki [1]: 20 nM |
| CNC(=O)[C@H](NC(=O)C(CC(C)C)CP(=O)(O)Cc1ccc(C(=O)c2ccccc2)cc1)C(C)(C)C (some centres undefined) | – | 750 | – |
| CNC(=O)[C@H](NC(=O)C(CC1CCCCC1)CP(=O)(O)Cc1ccc(Cc2ccccc2)cc1)C(C)(C)C (some centres undefined) | 1600 | 1800 | – |
| CNC(=O)[C@H](NC(=O)C(CC(C)C)CP(=O)(O)Cc1ccc(Cc2ccccc2)cc1)C(C)(C)C (some centres undefined) | 180 | 60 | – |
| CNC(=O)[C@H](NC(=O)C(CCc1ccccc1)CP(=O)(O)Cc1ccc(Cc2ccccc2)cc1)C(C)(C)C (some centres undefined) | 14 | 690 | Vd [2]: 0.2 L/kg; half-life [3]: 138 min; clearance [4]: 12 mL/min/kg; IC50 (Stromelysin-1): 1200 nM |
| CC(=O)N1CCC[C@H]1C(=O)NCCCCP(=O)(O)C[C@@H](CCc1ccccc1)C(=O)N[C@H](CC(C)C)C(=O)Nc1ccccc1 | – | – | Ki [1]: 6.1 nM; Selectivity [5]: 10; Ki (Stromelysin-1): 62 nM |
| CNC(=O)[C@H](NC(=O)C(CCC(F)(F)F)CP(=O)(O)Cc1ccc(Cc2ccccc2)cc1)C(C)(C)C (some centres undefined) | 1600 | 45 | – |
| CNC(=O)[C@H](NC(=O)C(CCCCOc1ccccc1)CP(=O)(O)Cc1ccc(Cc2ccccc2)cc1)C(C)(C)C (some centres undefined) | 30 | > 30000 | – |
| CC(C)CC(CP(=O)(O)Cc1ccc(Cc2ccccc2)cc1)C(=O)NC(CO)C(C)(C)C (centres undefined) | – | 18000 | – |
| CNC(=O)[C@@H](C)NC(=O)C(CC(C)C)CP(=O)(O)Cc1ccc(Cc2ccccc2)cc1 (some centres undefined) | – | 2300 | – |
